In the test the test system is Normal human epidermal melanocytes (NHEM). Briefly: Melanin inhibition rate in UVB-irradiated melanocytes. The conditions noted are these: for Melanin inhibition rate (% inhibition against UV): NHEM, UVB 14 mJ/cm^2 every 24 h, 72 hours treatment, active concentration (wt %) as in table, melanin normalized to relative cell viability; for Boost of efficacy of Vitamin K2 (melanin inhibition), in words: combination with Encap MK7 (0.0024%) in NHEM. The format is cell-based. How it is done: Effect of actives like 12HSA, 4-HR (4-hexyl resorcinol) and Encap MK7 (encapsulated Vitamin K2 of the MK-7 type) were tested individually and in combination. The protocol for the invitro assay is summarized below:
Normal human epidermal melanocytes (NHEM) (Biocell, Xi'an, China) were grown in melanocyte growth medium (MGM) with human melanocyte growth supplement (both from Promocell, Germany). NHEM cells were seeded at a density of 7×10^4 cells in 2 mL MGM/well in 6-well plates and incubated for 24 hours in an incubator at 37° C. with 5% CO2. When reaching 50% confluency, cells were irradiated with UVB at 14 mJ/cm^2 and after UV irradiation, media was replaced with fresh media containing test materials. Every 24 hours in the following 72 hours, the cells were irradiated with UVB again, and the treatment were refreshed.
At the end of the 72 hours incubation period, cell viability was determined using the Alamar Blue method. Briefly, cells were washed twice with phosphate buffered saline (PBS) solution. Freshly prepared 10% Alamar Blue working solution was added into each well including the blank control wells without cells. Plates were incubated for 1 hour at 37° C. in the CO2 incubator. The Alamar Blue solution was then transferred to a 96-well plate to check fluorescence intensity at Ex/Em 530 nm/590 nm using a fluorescent plate reader.
After cell viability evaluation, cells were further washed with PBS for twice and the cells were detached with 0.25% trypsin and collected with centrifugation. The cell pellet was added with a mixed solution (H2O:EtOH:Et2O=2:5:5 v/v) and the mixture was vortexed and left stand still for 30 min. Then the mixture was centrifuged at 1000 r/min for 10 min. The lower fraction was collected and further extracted with a solution containing 10% (v/v) DMSO and 1 M NaOH and incubated at 80° C. in a water bath for 40 minutes. Melanin standard solution was prepared in similarly by adding the same DMSO/NaOH mixed solution to the commercially sourced melanin and incubated at 80° C. for 40 minutes. The extracted melanin and the serially diluted melanin standard solution was then transferred to a 96-well plate and the absorbance at 405 nm was detected using a plate reader. The melanin content was calculated from the melanin standard curve. The melanin concentrations (μg/mL) were then normalized to the relative cell viability. The melanin inhibition rates were calculated using the following equation.

As to `CCCCCCC(O)CCCCCCCCCCC(=O)O` (stereo not shown) [A, 12-hydroxystearic acid], the “Melanin inhibition rate (% inhibition against UV)” value stood at 25.3% and the “Boost of efficacy of Vitamin K2 (melanin inhibition), in words” value is listed as “able to boost efficacy of Vitamin K2”.
For the compound `CCCCCCc1ccc(O)cc1O` [C, 4-hexyl resorcinol], the “Melanin inhibition rate (% inhibition against UV)” value is given as 38.5% and the “Boost of efficacy of Vitamin K2 (melanin inhibition), in words” value was “does not do so”.

The values above are taken from US20240415752A1, “A personal care composition comprising vitamin K2 and hydroxystearic acid” (Conopco, Inc., d/b/a UNILEVER, priority 2021, published 2024).
